In the assay the target is Caf1M-Caf1, Caf1M-(Caf1)2 and Caf1M-(Caf1)3 complexes (Yersinia pestis, UniProt P26948).

No end group written: not given here.

Caf1M-Caf1, Caf1M-(Caf1)2 and Caf1M-(Caf1)3 complexes, sequence (P26948 22-170 limits assumed, one chain of several): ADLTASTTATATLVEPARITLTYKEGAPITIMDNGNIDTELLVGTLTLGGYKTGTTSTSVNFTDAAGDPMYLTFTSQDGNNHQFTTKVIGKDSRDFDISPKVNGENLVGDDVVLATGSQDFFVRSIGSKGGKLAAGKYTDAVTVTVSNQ

Take ATATLV: the “dissociation of the complexes to free Caf1M and Caf1” value is on record as “some dissociation”; the “formation of high molecular weight complexes (polymerization)” value is “polymerization was completely inhibited”.

The record behind these values is patent US7544773B2 (priority 2003, dated 2009).
